Experimental findings from PubChem BioAssay (NCI) are described below.

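Exposure lasted 48 hours, with cells grown in 96-well plates and compounds tested at five concentrations. Abbreviation: GI50, concentration required for 50% inhibition of growth. TGI: total growth inhibition.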

Some test systems named below: A549 NSCLC; HS 578T breast; CAKI-1 renal; SK-OV-3 ovarian; MOLT-4 leukemia; NCI-H226 lung; UO-31 renal; M14 melanoma; NCI-H460 lung.
Common to all, as to test: NCI tumour cell line growth inhibition, 48 h

As to `Cc1cc(OCCOCCC(F)(F)P(=O)(O)O)ccc1CCc1cnc2c(N)nc3cc(CCC(=O)O)ccc3c2c1`, the GI50 in the assay with A549 NSCLC is more than 100 µM; in the assay on HS 578T breast, 26.6 µM; in the assay on CAKI-1 renal it was 72.7 µM; in the assay on SK-OV-3 ovarian, more than 100 µM; with MOLT-4 leukemia, more than 100 µM; with NCI-H226 lung, more than 100 µM. The GI50 in the assay with UO-31 renal, with M14 melanoma and with NCI-H460 lung was more than 100 µM throughout. Also, the TGI in the assay on A549 NSCLC, with HS 578T breast, in the assay on CAKI-1 renal, in the assay with SK-OV-3 ovarian, in the assay on MOLT-4 leukemia and in the assay on NCI-H226 lung was more than 100 µM throughout. In addition, the TGI in the assay on UO-31 renal, with M14 melanoma and in the assay on NCI-H460 lung was more than 100 µM in each case.
In the case of `Nc1ccc2ccc(N3CCNCC3)nc2n1`, the TGI in the assay with A549 NSCLC is more than 100 µM; in the assay on HS 578T breast, more than 100 µM; with CAKI-1 renal it was more than 100 µM; in the assay on SK-OV-3 ovarian, more than 100 µM; in the assay on MOLT-4 leukemia, more than 100 µM; in the assay on NCI-H226 lung it was 85.2 µM. In addition, the TGI in the assay on UO-31 renal, in the assay on M14 melanoma and in the assay with NCI-H460 lung was more than 100 µM in each case.
For the compound `CCCCCCCCP(=O)(O)OP(=O)(O)OCC1OC(n2ccc(N)nc2=O)C(O)C1O` (stereo not drawn), the TGI in the assay with A549 NSCLC, in the assay on HS 578T breast, in the assay on CAKI-1 renal, in the assay on SK-OV-3 ovarian, with MOLT-4 leukemia and in the assay with NCI-H226 lung was more than 100 µM in each case. The TGI in the assay on UO-31 renal, with M14 melanoma and in the assay on NCI-H460 lung was more than 100 µM each time.
Consider `COC(=O)[C@]1(c2cc3ccccc3[nH]2)CC2CN(C(=O)OCc3ccccc3)C1CC2=O` (stereo partly drawn), for which the TGI is 91.5 µM in the assay with A549 NSCLC; 62.4 µM in the assay with HS 578T breast; more than 100 µM with CAKI-1 renal; more than 100 µM in the assay on SK-OV-3 ovarian; 32.6 µM in the assay on MOLT-4 leukemia; 63.4 µM in the assay with NCI-H226 lung. The figures for the TGI with UO-31 renal, with M14 melanoma and in the assay on NCI-H460 lung were more than 100 µM, 75.1 µM and 77.6 µM, respectively.
Turning to `COc1cc(C2C3=C(CCCC3=O)N(c3ccc(C)cc3)C3=C2C(=O)CCC3)c([N+](=O)[O-])cc1OC`, the TGI in the assay with A549 NSCLC, in the assay on HS 578T breast, in the assay on CAKI-1 renal, with SK-OV-3 ovarian, in the assay on MOLT-4 leukemia and with NCI-H226 lung was more than 100 µM in each case. Besides, the TGI in the assay on UO-31 renal, with M14 melanoma and in the assay on NCI-H460 lung was more than 100 µM each time.
On to `O[C@@H]1CCC[C@@H]2NC[C@@H](c3ccc4c(c3)OCO4)[C@H]12`, for which the TGI in the assay with A549 NSCLC, in the assay on HS 578T breast, in the assay with CAKI-1 renal, in the assay with SK-OV-3 ovarian, in the assay on MOLT-4 leukemia and in the assay with NCI-H226 lung was more than 100 µM throughout. Besides, the TGI in the assay with UO-31 renal, in the assay on M14 melanoma and in the assay with NCI-H460 lung was more than 100 µM throughout.
Consider `CCCCc1ccc(Nc2nc(Cl)c3c(ncn3C3CC(Oc4ccc(C)cc4)C(COc4ccc(C)cc4)O3)n2)cc1` (stereo not drawn), for which the TGI in the assay on A549 NSCLC, in the assay with HS 578T breast, with CAKI-1 renal, in the assay on SK-OV-3 ovarian, with MOLT-4 leukemia and in the assay on NCI-H226 lung was more than 100 µM throughout. For the same compound, the TGI in the assay with UO-31 renal, in the assay on M14 melanoma and in the assay with NCI-H460 lung was more than 100 µM throughout.
For `Cc1ccc(S(=O)(=O)N/N=C2\CC3CC4CCC2C4C3)cc1` (stereo not drawn), the TGI in the assay with A549 NSCLC, in the assay with HS 578T breast, in the assay on CAKI-1 renal, with SK-OV-3 ovarian, in the assay with MOLT-4 leukemia and in the assay on NCI-H226 lung was more than 100 µM each time. Further, the TGI in the assay with UO-31 renal, in the assay on M14 melanoma and in the assay on NCI-H460 lung was more than 100 µM in each case.
Turning to `CC(=O)O[C@H]1C[C@@H](OC(C)=O)[C@@](C)(O)[C@@H]2[C@@H](OC(C)=O)[C@@]3(O)[C@H](/C=C(/CO)[C@H]4O[C@H]4[C@@H](OC(C)=O)[C@@]12C)OC(=O)[C@@H]3C`, the TGI in the assay on A549 NSCLC, in the assay on HS 578T breast, in the assay with CAKI-1 renal, with SK-OV-3 ovarian, with MOLT-4 leukemia and in the assay on NCI-H226 lung was more than 25 µM in each case. Besides, the TGI in the assay on UO-31 renal, in the assay on M14 melanoma and in the assay on NCI-H460 lung was more than 25 µM in each case.
As to `O=[N+]([O-])c1cc2ccc(N(CCO)CCO)nc2nc1N(CCO)CCO`, the TGI in the assay on A549 NSCLC, with HS 578T breast, in the assay with CAKI-1 renal, in the assay on SK-OV-3 ovarian, in the assay on MOLT-4 leukemia and in the assay with NCI-H226 lung was more than 100 µM throughout. For the same compound, the TGI in the assay on UO-31 renal, with M14 melanoma and in the assay with NCI-H460 lung was more than 100 µM each time.
Consider `Cc1c(C)c(C)c(-n2c(=O)n(C)c(=O)n2-c2cc(C(C)(C)C)cc(C(C)(C)C)c2O)c(C)c1C`, for which the TGI came to 17.3 µM in the assay on A549 NSCLC; 31.9 µM with HS 578T breast; 28.5 µM with CAKI-1 renal; 25.2 µM in the assay on SK-OV-3 ovarian; 19.3 µM with MOLT-4 leukemia; 22.1 µM with NCI-H226 lung. Besides, the values for the TGI with UO-31 renal, with M14 melanoma and in the assay with NCI-H460 lung were 14.1 µM, 25.9 µM and 27.1 µM, respectively.
Regarding `O=C1CSC(c2ccc([N+](=O)[O-])cc2)N1c1ccc(-c2ccc(-n3c(-c4ccccc4)nc4ccccc4c3=O)cc2)cc1` (stereo not drawn), the TGI in the assay on A549 NSCLC, in the assay with HS 578T breast, in the assay with CAKI-1 renal, in the assay on SK-OV-3 ovarian, in the assay with MOLT-4 leukemia and with NCI-H226 lung was more than 100 µM each time. Further, the TGI in the assay on UO-31 renal, in the assay on M14 melanoma and with NCI-H460 lung was more than 100 µM throughout.
Turning to `Cc1cc(S(=O)(=O)Nc2nncn2-c2ccc(Cl)cc2)c(S)cc1Cl`, the TGI in the assay on A549 NSCLC, in the assay with HS 578T breast, in the assay on CAKI-1 renal, in the assay with SK-OV-3 ovarian, in the assay on MOLT-4 leukemia and with NCI-H226 lung was more than 10 µM each time. For the same compound, the TGI in the assay with M14 melanoma and in the assay on NCI-H460 lung was more than 10 µM throughout.
Consider `O=c1c2cnccc2cc2c3ccccc3ccn12`, for which the TGI is more than 100 µM in the assay with A549 NSCLC; more than 100 µM in the assay with HS 578T breast; more than 100 µM with CAKI-1 renal; more than 100 µM with SK-OV-3 ovarian; 91.8 µM with MOLT-4 leukemia; more than 100 µM with NCI-H226 lung. The TGI in the assay on UO-31 renal, in the assay on M14 melanoma and in the assay with NCI-H460 lung was more than 100 µM each time.
For `COC(=O)C1=C(C(=O)OC)C(N(C)C)C(C(=O)OC)=C(C(=O)OC)S1`, the TGI in the assay on A549 NSCLC, in the assay on HS 578T breast, in the assay on CAKI-1 renal, in the assay on SK-OV-3 ovarian, in the assay on MOLT-4 leukemia and in the assay on NCI-H226 lung was more than 100 µM in each case. Moreover, the TGI in the assay on UO-31 renal, in the assay with M14 melanoma and with NCI-H460 lung was more than 100 µM throughout.
Turning to `CCCCSC1=N/C(=C\c2ccc(N(C)C)cc2)C(=O)N1`, the TGI in the assay on A549 NSCLC is 75.2 µM; in the assay with HS 578T breast, 92.1 µM; with CAKI-1 renal, more than 100 µM; with SK-OV-3 ovarian, more than 100 µM; in the assay on MOLT-4 leukemia, more than 100 µM; in the assay on NCI-H226 lung, 54.2 µM. Besides, the TGI in the assay on M14 melanoma is more than 100 µM; in the assay on NCI-H460 lung, 51.6 µM.
Turning to `C/C=C(\C)C(=O)O[C@@H]1CC(C)(C)CC2C3=CCC4[C@]56CC[C@](O)(OC5)C(C)(C)C6CC[C@@]4(C)C3(C)CC[C@]21C(=O)O` (stereo partly drawn), the TGI in the assay with A549 NSCLC, in the assay on HS 578T breast, in the assay on CAKI-1 renal, in the assay on SK-OV-3 ovarian, in the assay on MOLT-4 leukemia and with NCI-H226 lung was more than 100 µM in each case. Besides, the TGI with M14 melanoma and in the assay with NCI-H460 lung was more than 100 µM each time.
For the compound `CN1CCc2c(sc3ncn(Nc4ccc(Cl)cc4)c(=N)c23)C1`, the TGI with A549 NSCLC, in the assay with HS 578T breast, in the assay with CAKI-1 renal, in the assay on SK-OV-3 ovarian, in the assay on MOLT-4 leukemia and in the assay with NCI-H226 lung was more than 100 µM throughout. Also, the TGI with M14 melanoma and with NCI-H460 lung was more than 100 µM throughout.
In the case of `O=[N+]([O-])c1cc(F)ccc1S(=O)(=O)c1ccccc1`, the TGI in the assay with A549 NSCLC, in the assay with HS 578T breast, in the assay with CAKI-1 renal, in the assay with SK-OV-3 ovarian, in the assay on MOLT-4 leukemia and with NCI-H226 lung was more than 10 µM each time. In addition, the TGI in the assay on M14 melanoma and in the assay on NCI-H460 lung was more than 10 µM throughout.
On to `C=CCOC(OCC=C)/C(Br)=C/C`, for which the TGI in the assay with A549 NSCLC was more than 100 µM; with HS 578T breast, 72.2 µM; in the assay with CAKI-1 renal, more than 100 µM; with SK-OV-3 ovarian it was more than 100 µM; in the assay on NCI-H226 lung, more than 100 µM; with UO-31 renal, more than 100 µM. Besides, the TGI in the assay with M14 melanoma and in the assay on NCI-H460 lung was more than 100 µM throughout.
